# Test results published in PMC10987949, “Inhibition of HIV-1 release by ADAM metalloproteinase inhibitors” (Frontiers in Microbiology, 2024).
# Legend:
# TNFα release = TNFα release ELISA, stimulated CD4 T cells; format: cell-based, human; conditions: PHA or anti-CD3 stimulated CD4 T cells
# Procedure: PBMC from de-identified healthy donors were obtained with informed consent from the Department of Transfusion Medicine, National Institutes of Health under Biological reagent Registry RD-14-IX-12 approved by NIH biological safety board. CD8-depleted PBMCs, either stimulated or non-stimulated with 10 μg/mL phytohaemagglutinin (PHA) or anti-CD3 antibody (with or without conjugated beads), were plated at 2×10^6 cells/ml in 48 well plates in RPMI 1640 + 10%FBS (R10) to a final volume of 1 mL in each well. IL-2 was added at a final concentration of 20 U/mL. CD3 antibody okt3 was used at ~0.2 μg/mL final concentration. Compounds were prepared in appropriate solvents according to the manufacturer’s instructions, diluted to working concentrations using RPMI 1640 + 10%FBS (R10), and added to the cell cultures for 6–24 h for CD62L shedding, and 48 h for TNF-α release. Supernatants were collected and assessed using either the CD62L or TNF-α Duo Set ELISA kit according to manufacturer’s instructions (R&D Systems, Inc.). The viability of cells treated with compounds was assessed by acridine orange / propidiom iodide (AO/PI Logosbio catalog F23001) staining using Luna-FL cell counter following the manufacture’s instruction.^2
# ADAM9, 10 and 17 mRNA = assay: RT-PCR of ADAM9, 10 and 17 mRNA in HIV-1BAL infected PBMC; format: cell-based, human; conditions: day 3 and 6 of infected samples
# Procedure: RT-PCR using ADAM9, 10 and 17 primer probes was assayed using TaqMan primer/probe sets from ThermoFisher with a 50 ng cDNA template as described previously ([Chun et al., 2013]; [Kononchik et al., 2018]). The following TaqMan 20X Gene Expression Assay probes (Dye: FAM-MGB) were used: ADAM9 (Hs00177638_m1), ADAM10 (Hs00153853_m1), ADAM17 (Hs01041915_m1). Expression Assay standard probes (Dye: VIC-MGB) for β-Actin (Hs01060665_g1) or RNase P/RPPH1 (4403328) were used as gene expression controls. Briefly, HIV infected or uninfected cells from triplicate experiments were washed 3x in PBS and lysed for RNA isolation using RNeasy mini kit (QIAGEN corp). The corresponding cDNA samples were prepared using either TaqMan microRNA reverse transcription kit or Invitrogen High-Capacity cDNA reverse transcription kit (Thermo Fisher). Samples were run in duplicate across triplicate experiments on an ABI 7300 Real-Time PCR System (Applied Biosystems) with a threshold of 0.2. Relative gene expression was calculated using the 2^-ΔCt method and normalized to β-Actin or RNaseP as the endogenous controls. All statistical analyses were carried out using the software Prism 8 (GraphPad Software, Inc). Western blot analyses were used to detect the mature active form of ADAMs ([Pereira Vatanabe et al., 2021]). […]
# HIV = test system: HIV; design: method as in Kononchik et al., 2018; conditions: ref Kononchik et al., 2018; cited from earlier work
smiles,measurement,setting,value
"CNC(=O)[C@H](Cc1ccccc1)NC(=O)[C@H](CC(C)C)[C@H](CSc1cccs1)C(=O)NO [BB-94, Batimastat]",effect on TNFα release,TNFα release,inhibited
same,"HIV-1BAL induced increase of ADAM9, 10, 17 mRNA","ADAM9, 10 and 17 mRNA",increase was not observed
same,effect on HIV cell-to-cell transfer infections,HIV,effectively suppressed HIV cell-to-cell transfer infections
